Test results as given in article PMC2787016 (PLoS Pathogens, 2009).
pIC50: −log10 of the molar value. Where a SMILES comes first, the peptide text is derived from it. Where no end group is shown, it is not given here.

biological target: HLA-A*0201 (Homo sapiens, UniProt P04439, D140Y/D185E/D98H/E176V/E277Q/G131W/G231S/I119V/I121R/I166T/I218V/L300P/L318F/N151K/N90K/P208A/P217A/Q86G/Q94H/R138H/R169H/T345S); assay: biochemical; type: binding

| Compound | pIC50 |
| --- | --- |
| CC(C)C[C@H](NC(=O)[C@H](CC(C)C)NC(=O)[C@H](CC(N)=O)NC(=O)[C@H](CC(C)C)NC(=O)[C@H](CS)NC(=O)[C@H](Cc1c[nH]cn1)NC(=O)[C@H](CCCNC(=N)N)NC(=O)[C@H](CS)NC(=O)[C@H](CC(C)C)NC(=O)[C@@H](N)Cc1ccc(O)cc1)C(=O)O [LCMV Z49–58] (H-YLCRHCLNLL-OH) | 8.41 |
| AINIALIAV [SABV GPC18–26] | 6.08 |
| ALNIALIAV [WWAV GPC18–26] | 7.57 |
| ALNIALVAV [JUNV GPC18–26] | 7.10 |
| AMPGVLSYV [MACV NP432–440] | 8.08 |
| AVYNFATCGI [LCMV GPC34–43] | 6.86 |
| GLLEWIFRA [SABV GPC142–150] | 8.92 |
| GLLQFIVFL [WWAV GPC42–50] | > 10.30 |
| GLSQFTHTV [MACV NP19–27] | 7.74 |
| GLSQFTQTV [JUNV NP19–27] | 7.52 |
| LLPDALLFTL [SABV NP547–556] | 7.11 |
| SIINHKFCNL [LASV GPC111–120] | 5.67 |
| TVIKTLLEV [WWAV NP274–282] | 6.56 |

biological target: HLA-A*1101 (Homo sapiens, UniProt P04439, A114D/D185E/E176A/F33Y/L180Q/S129P/T187R); assay: biochemical; type: binding

| Compound | pIC50 |
| --- | --- |
| ATVKNVVLR [GTOV L1977–1985] | 7.27 |
| FTNDSIISH [LCMV GPC112–120] | 7.42 |
| KCLNIMLGK [SABV Z64–72] | 6.17 |
| LVSFLLLAGR [LCMV GPC46–55] | 7.15 |
| LVTFLLLCGR [LASV GPC46–55] | < 5.30 |
| RTAPPSLYGR [MACV Z27–36] | 8.05 |
| SIQKNTIFK [MACV NP82–90] | 8.26 |
| SSIIRSLPK [WWAV NP439–447] | 8.60 |
| SSQRDTILK [SABV NP82–90] | 8.03 |
| STYYVHENK [SABV GPC90–98] | 8.22 |
| TTYLGPLSCK [LCMV Z24–33] | 8.55 |

tested on: human JA2.1 cells infected with the appropriate rVACV; assay: not given; type: cell-based, HLA-A*0201 transgenic mice; design: key to Natural processing in human APCs: +, Processed; +/−, weakly processed; −, not processed

| Compound | Natural processing in human APCs | Recognition of rVACV-infected human target cells by peptide-primed CD8+ T cells |
| --- | --- | --- |
| GLLQFIVFL [WWAV GPC42–50] | + | robust |

tested on: HLA-restricted target cells pulsed with peptide; assay: not given; type: cell-based, HLA-A*1101 transgenic mice

| Compound | % of Epitope response [%] |
| --- | --- |
| LVTFLLLCGR [LASV GPC46–55] | 147 |

tested on: peptide-pulsed JA2.1 cells; assay: not given; type: cell-based, HLA-A*0201 transgenic mice

| Compound | Identified as CD8+ T cell epitope after rVACV infection |
| --- | --- |
| GLLQFIVFL [WWAV GPC42–50] | identified |
